Source: patent US11350630B2, “1-amino-1-cyclopropanecarboxylic acid hydrochloride formulations” (Valent BioSciences LLC, priority 2017, dated 2022)

Legend:
[1] = Titration of ACC HCl salt solutions; type: physicochemical
Protocol: When ACC HCl salt was added to water to a concentration of 10% w/w ACC the pH was determined to be 1.0±0.3. The solution was then titrated with each of sodium hydroxide, N,N dimethyl ethanolamine, triethanolamine, choline hydroxide, ammonium hydroxide dimethyl amine, and triethyl tetramine to achieve more basic solutions.
Thus, ACC HCl salt solutions are inherently unstable at a pH range of 2.75 to 8.5.

[2] = Non-aqueous solvent screening (solubility of ACC HCl); type: physicochemical; settings: about 21° C.
Protocol: ACC HCl salt was added at 1-gram increments to 1 liter of each of the solvents in Table 1 at about 21° C. while stirring until the salt would no longer solubilize.

[3] = Chemical stability of ACC HCl in select non-aqueous solvents, 54 C, 3 weeks; type: physicochemical; settings: for ACC HCl 3 weeks / ACC HCl % loss: 54 C, 3 weeks; for ACC HCl Initial: time 0
Protocol: Formulations were prepared with 14% w/w initial concentration of ACC HCl and […] Tween® 20 in each of the following solvents: 1,3 propanediol; ethylene glycol; diethylene glycol; dimethyl lactamide; and N-methyl pyrrolidone. Each formulation was then stored at 54 C for 3 weeks, which is the equivalent of storage for 3 years at room temperature. ACC HCl salt concentration was measured at time 0 and at 3 weeks.

[4] = Chemical stability of ACC HCl in select non-aqueous solvents, 5 or 54 C, 2 weeks; type: physicochemical; settings: for % loss / ACC HCl 5 C., 2 weeks / ACC HCl 54 C., 2 weeks: 2 weeks; for ACC HCl Initial: time 0
Protocol: Formulations were prepared with 14% w/w initial concentration of ACC HCl and 2.5% w/w Tween® 20 in each of the following solvents: polyethylene glycol and propylene glycol. Each formulation was then stored at 5 or 54 C for 2 weeks, which is the equivalent of storage for 2 years at room temperature. ACC HCl salt concentration was measured at time 0 and at 2 weeks.

[5] = Stable non-aqueous ACC HCl salt formulation (solubility, stability at 5° C.); type: physicochemical; settings: 13.6% ACC HCl salt, 84.4% propylene glycol, 2% Tween 20
Protocol: A formulation was prepared containing 13.6% ACC HCl salt, 84.4% propylene glycol and 2% Tween® 20.
Further, non-aqueous formulations of the present invention remained stable when placed at 5° C. Thus, specific non-aqueous formulations can stabilize ACC HCl salt.

cotton cotyledons = assay: Cotton cotyledon bioefficacy assay: effect of solution pH and ACC form on ethylene production; settings: for Ethylene Production: 250 ppm, 48 hours after spray
Gala apple = assay: Apple fruitlet thinning assay; type: in vivo
Protocol: Formulations 1-3 were diluted with water to 408 ppm ACC HCl salt (i.e. molar equivalent to 300 ppm ACC free acid) and applied to Gala apple fruit when mean fruit diameter was 20 mm along with ACC free acid at 300 ppm. The apple plants were allowed to reach fruit set and set fruits were counted and compared to an untreated control. Fruit set was calculated as the number of fruits which set on a sample of 100 flower clusters.

[6] = Surfactant screening for stable ACC HCl salt solutions (titration with potassium hydroxide); type: physicochemical; settings: addition at about 0.5% w/w
Protocol: The solution was then titrated with potassium hydroxide to achieve a more basic solution. Due to the exothermic nature of the titration process, titration occurred in a water bath maintained at a temperature of 20° C.±5° C.

[7] = Diethylene glycol with Tween 20
[8] = Dimethyl lactamide with Tween 20
[9] = N-methyl pyrrolidone with Tween 20
[10] = Polyethylene glycol with 2.5% w/w Tween 20, 5 C
[11] = Polyethylene glycol with 2.5% w/w Tween 20, 54 C
[12] = Propylene glycol with 2.5% w/w Tween 20, 5 C
[13] = Propylene glycol with 2.5% w/w Tween 20, 54 C

In the case of Cl.NC1(C(=O)O)CC1 [ACC HCl, 1-amino-1-cyclopropanecarboxylic acid hydrochloride salt], the pH of solution ([1]; ACC HCl salt added to water to 10% w/w ACC) is reported as 1.0±0.3, the “pH at which all precipitates dissolve into solution” value ([1]; further titration with base) is reported as “above 9.0” and the “Measured Solubility of ACC HCl” value ([2]; 1,3-propane diol) is reported as 25 % w/w. For the same molecule, the “Measured Solubility of ACC HCl” value ([2]; Diethylene glycol monomethyl ether) was 14 % w/w, the “Measured Solubility of ACC HCl” value ([2]; Diethylene glycol) was 25 % w/w and the “Measured Solubility of ACC HCl” value ([2]; Dimethyl lactamide) was 20 % w/w. The “Measured Solubility of ACC HCl” value ([2]; Dipropylene glycol) was 8 % w/w, the “Measured Solubility of ACC HCl” value ([2]; Ethyl lactate) was 14 % w/w and the “Measured Solubility of ACC HCl” value ([2]; Ethylene glycol) was 34 % w/w. For the same molecule, the “Measured Solubility of ACC HCl” value ([2]; Fatty alcohol ethoxylate) was 14 % w/w, the “Measured Solubility of ACC HCl” value ([2]; Glycerin) was 14 % w/w and the “Measured Solubility of ACC HCl” value ([2]; Monoacetin) was 14 % w/w. The “Measured Solubility of ACC HCl” value ([2]; N-methyl-2-pyrrolidinone) was 20 % w/w, the “Measured Solubility of ACC HCl” value ([2]; Polyethylene glycol 200) was 21 % w/w and the “Measured Solubility of ACC HCl” value ([2]; Polyethylene glycol 400) was 14 % w/w. For the same molecule, the “Measured Solubility of ACC HCl” value ([2]; Polyethylene glycol 600) was 14 % w/w, the “Measured Solubility of ACC HCl” value ([2]; Polypropylene glycol) was 14 % w/w and the “Measured Solubility of ACC HCl” value ([2]; Propylene carbonate) was under 2 % w/w. The “Measured Solubility of ACC HCl” value ([2]; Propylene glycol) was 27 % w/w, the “Measured Solubility of ACC HCl” value ([2]; The ester of 2-ethyl hexanol and natural lactic acid) was 14 % w/w and the “ACC HCl 3 weeks” value ([3]; 1,3 propanediol with Tween 20) was 13.9 % w/w. For the same molecule, the “ACC HCl % loss” value ([3]; 1,3 propanediol with Tween 20) was 1.7 % loss, the “ACC HCl Initial” value ([3]; 1,3 propanediol with Tween 20) was 14.14 % w/w and the “ACC HCl 3 weeks” value [3, 7] was 13.8 % w/w. For the same molecule, the “ACC HCl % loss” value [3, 7] was 1.4 % loss, the “ACC HCl Initial” value [3, 7] was about 14% w/w and the “ACC HCl 3 weeks” value [3, 8] was 13.5 % w/w. The “ACC HCl % loss” value [3, 8] was 2.9 % loss, the “ACC HCl Initial” value [3, 8] was 13.9 % w/w and the “ACC HCl 3 weeks” value ([3]; Ethylene glycol with Tween 20) was 13.6 % w/w. For the same molecule, the “ACC HCl % loss” value ([3]; Ethylene glycol with Tween 20) was 2.9 % loss, the “ACC HCl Initial” value ([3]; Ethylene glycol with Tween 20) was 14.0 % w/w and the “ACC HCl 3 weeks” value [3, 9] was 13.9 % w/w. The “ACC HCl % loss” value [3, 9] was 0.7 % loss, the “ACC HCl Initial” value [3, 9] was 14.0 % w/w and the “% loss” value [4, 10] was −0.3%. The “ACC HCl 5 C., 2 weeks” value [4, 10] was 14.20 % w/w, the “% loss” value [4, 11] was 2.5% and the “ACC HCl 54 C., 2 weeks” value [4, 11] was 13.81 % w/w. The “ACC HCl Initial” value ([4]; Polyethylene glycol with 2.5% w/w Tween 20) was 14.16 % w/w, the “% loss” value [4, 12] was 0% and the “ACC HCl 5 C., 2 weeks” value [4, 12] was 14.10 % w/w. For the same molecule, the “% loss” value [4, 13] was 6.7%, the “ACC HCl 54 C., 2 weeks” value [4, 13] was 13.15 % w/w and the “ACC HCl Initial” value ([4]; Propylene glycol with 2.5% w/w Tween 20) was 14.10 % w/w. The “solubility in non-aqueous solvents” value [5] was “soluble”, the “Ethylene Production” value (cotton cotyledons; solution pH 2.5) was 26.9 nL/g FW/hr and the “Ethylene Production” value (cotton cotyledons; solution pH 5.0) was 16.5 nL/g FW/hr. For the same molecule, the “more ethylene generated at pH 2.5 than at pH 5.0” value (cotton cotyledons; same solution, pH 2.5 vs pH 5.0) was 65%.
In the case of NC1(C(=O)O)CC1 [ACC free acid, 1-amino-1-cyclopropanecarboxylic acid], the Fruit set (Gala apple; 408 ppm ACC HCl salt (formulations) or 300 ppm ACC free acid, mean fruit diameter 20 mm) is reported as 70 fruit/100 flower clusters, the “reduction of fruit set” value (Gala apple; compared to untreated control) is reported as 20% and the “Ethylene Production” value (cotton cotyledons; solution pH 2.5) is reported as 31.1 nL/g FW/hr. For the same molecule, the “Ethylene Production” value (cotton cotyledons; solution pH 5.0) was 13.4 nL/g FW/hr.
In the case of O=C(O)CN(CCN(CC(=O)O)CC(=O)O)CC(=O)O [EDTA, ethylenediaminetetraacetic acid], the “solution stability of ACC HCl salt solution” value [6] is reported as “further enhanced solution stability”.
